From publication PMC8903829 (eLife, 2022)

Assays:
Format in all cases: cell-based
hNaV1.6 N1466K = molecular target: T1, hNaV1.6 N1466K (Homo sapiens, UniProt Q9UQD0, N1466K); experiment: Automated patch-clamp, patient-identified variant in Expi293F cells; design: h1.6 -N1466K 145756, Mean: scale not given here
T1 construct: expression vector containing the full-length cDNA coding for specific human and mouse sodium channel α-subunit; expressed in transfected cells; host or cells: Expi293F (transient, tetracycline-induced, pcDNA4/TO)
Procedure: (§1) For studies of mutant channels, cDNA plasmids in pcDNA4/TO Mammalian Expression Vector were transiently transfected into Expi293F cells stably expressing human FHF2b and human SCN1B subunit (polyclonal) background using ExpiFectamine 293 Transfection Kits (Gibco,Thermo Fisher Scientific CAT #: A14524). Induction was achieved using Tetracycline (Sigma Aldrich). Transfected cells were used in automated patch-clamp experiments 24 hours postinduction.
(§2) Inorm(CPD)=(ICPD−Icontrol)/(ITTX−Icontrol).

hNaV1.7 = molecular target: T2, hNaV1.7 (Homo sapiens, UniProt Q15858); experiment: Qube 384 automated patch-clamp, inactivated-state inhibition
T2 construct: expression vector containing the full-length cDNA coding for specific human and mouse sodium channel α-subunit; expressed in transfected cells
Excerpt: (§3) All of the cell lines tested negative for mycoplasma.
as §2

hNaV1.2 = molecular target: T3, hNaV1.2 (Homo sapiens, UniProt Q99250); experiment: as above
T3 construct: expression vector containing the full-length cDNA coding for specific human and mouse sodium channel α-subunit; expressed in transfected cells
Excerpt: as §3, §2

hNaV1.3 = molecular target: T4, hNaV1.3 (Homo sapiens, UniProt Q9NY46); experiment: as above
T4 construct: expression vector containing the full-length cDNA coding for specific human and mouse sodium channel α-subunit; expressed in transfected cells
Excerpt: as §3, §2

hNaV1.6 = molecular target: T5, hNaV1.6 (Homo sapiens, UniProt Q9UQD0); experiment: V0.5 assay (holding potential -62 mV); conditions: V0.5 assay -62 mV
T5 construct: expression vector containing the full-length cDNA coding for specific human and mouse sodium channel α-subunit; expressed in transfected cells

hNaV1.6 N984K = molecular target: T6, hNaV1.6 N984K (Homo sapiens, UniProt Q9UQD0, N984K); experiment: Automated patch-clamp, patient-identified variant in Expi293F cells; design: h1.6-N984K 145756, Mean: scale not given here
T6 construct: expression vector containing the full-length cDNA coding for specific human and mouse sodium channel α-subunit; expressed in transfected cells; host or cells: Expi293F (transient, tetracycline-induced, pcDNA4/TO)
Procedure: as §1, §2

T6 sequence (Q9UQD0 whole entry N984K): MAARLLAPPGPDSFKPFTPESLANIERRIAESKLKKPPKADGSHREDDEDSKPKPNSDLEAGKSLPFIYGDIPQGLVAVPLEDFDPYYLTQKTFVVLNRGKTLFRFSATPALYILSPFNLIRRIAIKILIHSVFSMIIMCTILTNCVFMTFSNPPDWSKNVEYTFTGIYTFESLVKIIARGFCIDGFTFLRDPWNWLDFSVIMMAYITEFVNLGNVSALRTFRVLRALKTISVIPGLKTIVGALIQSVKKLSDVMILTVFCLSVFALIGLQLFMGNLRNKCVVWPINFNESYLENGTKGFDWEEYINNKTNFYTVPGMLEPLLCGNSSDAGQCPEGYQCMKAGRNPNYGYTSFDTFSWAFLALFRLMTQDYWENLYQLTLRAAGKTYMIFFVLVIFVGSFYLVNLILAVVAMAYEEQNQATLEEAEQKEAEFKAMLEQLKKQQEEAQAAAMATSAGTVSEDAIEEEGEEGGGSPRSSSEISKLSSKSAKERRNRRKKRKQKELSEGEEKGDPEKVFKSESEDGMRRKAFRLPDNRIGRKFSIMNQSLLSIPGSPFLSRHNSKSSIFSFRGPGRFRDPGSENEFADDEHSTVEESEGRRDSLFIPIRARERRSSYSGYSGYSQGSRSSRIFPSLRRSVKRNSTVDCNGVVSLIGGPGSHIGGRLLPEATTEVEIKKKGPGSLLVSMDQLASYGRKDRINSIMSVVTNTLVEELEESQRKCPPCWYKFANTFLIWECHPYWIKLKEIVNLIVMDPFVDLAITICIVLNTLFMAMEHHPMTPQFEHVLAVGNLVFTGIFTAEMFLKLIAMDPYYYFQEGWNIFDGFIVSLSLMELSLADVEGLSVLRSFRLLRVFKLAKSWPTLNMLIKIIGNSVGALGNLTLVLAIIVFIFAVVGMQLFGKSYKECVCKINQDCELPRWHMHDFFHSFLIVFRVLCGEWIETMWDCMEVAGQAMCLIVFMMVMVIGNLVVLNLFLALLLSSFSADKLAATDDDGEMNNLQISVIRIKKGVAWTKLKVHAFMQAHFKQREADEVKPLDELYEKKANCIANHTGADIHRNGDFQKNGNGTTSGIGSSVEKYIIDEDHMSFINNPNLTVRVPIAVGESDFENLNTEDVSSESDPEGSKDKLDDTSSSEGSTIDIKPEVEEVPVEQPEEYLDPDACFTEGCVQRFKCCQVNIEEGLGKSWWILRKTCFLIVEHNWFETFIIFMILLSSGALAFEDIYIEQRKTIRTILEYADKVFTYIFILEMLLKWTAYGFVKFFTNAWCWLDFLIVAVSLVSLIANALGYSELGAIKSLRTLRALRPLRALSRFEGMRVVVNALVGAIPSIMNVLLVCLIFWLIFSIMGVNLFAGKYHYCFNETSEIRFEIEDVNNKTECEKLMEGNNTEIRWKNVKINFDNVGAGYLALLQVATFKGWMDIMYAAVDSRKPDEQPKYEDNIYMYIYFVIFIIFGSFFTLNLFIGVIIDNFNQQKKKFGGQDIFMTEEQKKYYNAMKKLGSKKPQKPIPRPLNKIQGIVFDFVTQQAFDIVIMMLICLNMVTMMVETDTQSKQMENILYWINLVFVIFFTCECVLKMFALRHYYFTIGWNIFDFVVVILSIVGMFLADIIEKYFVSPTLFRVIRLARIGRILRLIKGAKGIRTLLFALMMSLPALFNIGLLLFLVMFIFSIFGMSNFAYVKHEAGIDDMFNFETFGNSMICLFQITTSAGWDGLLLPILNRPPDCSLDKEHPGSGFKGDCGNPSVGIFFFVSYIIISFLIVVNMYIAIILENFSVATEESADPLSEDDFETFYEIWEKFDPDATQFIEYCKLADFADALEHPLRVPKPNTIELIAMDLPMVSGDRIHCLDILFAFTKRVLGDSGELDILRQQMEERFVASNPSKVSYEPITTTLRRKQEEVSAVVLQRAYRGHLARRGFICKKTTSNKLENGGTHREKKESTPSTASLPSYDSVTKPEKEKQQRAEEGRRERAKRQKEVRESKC
T4 sequence (Q9NY46 whole entry): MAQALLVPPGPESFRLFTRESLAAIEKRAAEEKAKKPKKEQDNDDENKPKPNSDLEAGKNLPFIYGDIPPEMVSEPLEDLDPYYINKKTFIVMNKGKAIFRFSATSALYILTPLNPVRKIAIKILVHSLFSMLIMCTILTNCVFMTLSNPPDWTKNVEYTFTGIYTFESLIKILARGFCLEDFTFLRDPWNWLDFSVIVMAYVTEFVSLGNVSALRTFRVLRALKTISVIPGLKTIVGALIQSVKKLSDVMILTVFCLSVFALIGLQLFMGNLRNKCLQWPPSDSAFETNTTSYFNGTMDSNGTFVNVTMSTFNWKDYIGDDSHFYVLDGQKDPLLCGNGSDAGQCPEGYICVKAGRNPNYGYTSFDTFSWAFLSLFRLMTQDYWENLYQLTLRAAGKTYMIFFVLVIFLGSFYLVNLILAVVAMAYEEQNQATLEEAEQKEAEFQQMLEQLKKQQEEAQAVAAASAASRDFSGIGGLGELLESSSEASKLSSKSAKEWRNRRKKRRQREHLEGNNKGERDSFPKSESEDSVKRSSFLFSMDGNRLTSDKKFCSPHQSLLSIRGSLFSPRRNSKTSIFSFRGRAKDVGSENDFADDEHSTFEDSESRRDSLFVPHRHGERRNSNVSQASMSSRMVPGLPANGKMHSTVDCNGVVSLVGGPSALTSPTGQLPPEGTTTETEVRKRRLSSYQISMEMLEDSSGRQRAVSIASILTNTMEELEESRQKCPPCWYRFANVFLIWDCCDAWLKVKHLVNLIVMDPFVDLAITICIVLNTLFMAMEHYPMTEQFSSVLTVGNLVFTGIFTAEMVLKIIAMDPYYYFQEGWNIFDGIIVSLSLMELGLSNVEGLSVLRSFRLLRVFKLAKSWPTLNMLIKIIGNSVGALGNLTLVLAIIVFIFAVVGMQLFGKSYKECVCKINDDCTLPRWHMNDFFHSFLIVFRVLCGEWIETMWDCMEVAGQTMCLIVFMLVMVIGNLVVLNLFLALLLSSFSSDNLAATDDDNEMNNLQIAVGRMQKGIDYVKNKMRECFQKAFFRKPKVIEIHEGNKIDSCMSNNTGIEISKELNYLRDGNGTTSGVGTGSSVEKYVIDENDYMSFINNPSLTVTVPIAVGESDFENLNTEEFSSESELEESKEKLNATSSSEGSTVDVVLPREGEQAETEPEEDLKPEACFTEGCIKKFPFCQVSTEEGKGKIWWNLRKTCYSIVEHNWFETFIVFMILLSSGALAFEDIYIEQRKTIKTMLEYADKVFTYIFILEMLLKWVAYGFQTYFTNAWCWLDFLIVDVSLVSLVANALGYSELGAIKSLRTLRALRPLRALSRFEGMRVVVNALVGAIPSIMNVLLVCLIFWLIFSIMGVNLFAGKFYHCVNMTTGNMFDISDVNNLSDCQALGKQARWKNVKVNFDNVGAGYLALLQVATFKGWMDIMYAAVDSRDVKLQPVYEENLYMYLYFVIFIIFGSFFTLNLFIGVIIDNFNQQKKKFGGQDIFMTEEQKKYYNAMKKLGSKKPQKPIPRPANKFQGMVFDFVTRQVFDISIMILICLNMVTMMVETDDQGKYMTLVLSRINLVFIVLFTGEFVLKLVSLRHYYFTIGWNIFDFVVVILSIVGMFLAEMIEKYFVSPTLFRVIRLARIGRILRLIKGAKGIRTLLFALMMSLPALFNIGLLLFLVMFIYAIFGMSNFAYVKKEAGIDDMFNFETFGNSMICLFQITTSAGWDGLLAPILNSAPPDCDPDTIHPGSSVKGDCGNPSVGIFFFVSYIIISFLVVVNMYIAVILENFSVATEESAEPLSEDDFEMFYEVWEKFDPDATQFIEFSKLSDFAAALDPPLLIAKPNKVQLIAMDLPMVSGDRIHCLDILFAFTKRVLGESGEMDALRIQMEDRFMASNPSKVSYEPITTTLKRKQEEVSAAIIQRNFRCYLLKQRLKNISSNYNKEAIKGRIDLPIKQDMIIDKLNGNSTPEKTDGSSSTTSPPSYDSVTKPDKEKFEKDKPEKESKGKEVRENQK
T5 sequence (Q9UQD0 whole entry): as the sequence (Q9UQD0 whole entry N984K) above, with K984N counted along it
T5 sequence (Q92913 1-192 isoform Q92913-2 partner): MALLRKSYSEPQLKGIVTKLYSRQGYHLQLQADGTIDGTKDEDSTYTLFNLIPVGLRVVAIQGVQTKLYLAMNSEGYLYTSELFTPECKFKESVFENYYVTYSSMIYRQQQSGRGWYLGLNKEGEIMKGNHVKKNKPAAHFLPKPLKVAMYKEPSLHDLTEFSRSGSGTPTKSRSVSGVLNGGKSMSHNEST
T1 sequence (Q9UQD0 whole entry N1466K): as the sequence (Q9UQD0 whole entry N984K) above, with K984N, N1466K counted along it

Cc1cc(S(=O)(=O)Nc2cscn2)c(F)cc1N(C)[C@H]1CCN(Cc2ccccc2)C1 [NBI-921352]
h1.6 -N1466K 145756, Mean (hNaV1.6 N1466K; -6.4318 LogM): 0.73 | h1.6 -N1466K 145756, Mean (hNaV1.6 N1466K; -6.91009 LogM): 0.69 | h1.6 -N1466K 145756, Mean (hNaV1.6 N1466K; -7.38722 LogM): 0.47 | h1.6 -N1466K 145756, Mean (hNaV1.6 N1466K; -7.85387 LogM): 0.32 | h1.6 -N1466K 145756, Mean (hNaV1.6 N1466K; -8.33 LogM): 0.15 | hNav1.7 current (352)/(Vehicle), mean (hNaV1.7; -4.52288 Log M): 0.74 | hNav1.7 current (352)/(Vehicle), mean (hNaV1.7; -5 Log M): 0.41 | hNav1.7 current (352)/(Vehicle), mean (hNaV1.7; -5.47716 Log M): 0.2 | hNav1.7 current (352)/(Vehicle), mean (hNaV1.7; -5.95429 Log M): 0.08 | hNav1.7 current (352)/(Vehicle), mean (hNaV1.7; -6.91009 Log M): 0.02 | hNav1.7 current (352)/(Vehicle), mean (hNaV1.7; -7.38722 Log M): 0.01 | hNav1.7 current (352)/(Vehicle), mean (hNaV1.7; -7.85387 Log M): 0.02 | hNav1.7 current (352)/(Vehicle), mean (hNaV1.7; -8.30103 Log M): -0.02 | IC50 (hNaV1.7; Vh -60 mV, HEK-293): 14 µM | hNav1.2 current (352)/(Vehicle), mean (hNaV1.2; -4 Log M): 0.88 | hNav1.2 current (352)/(Vehicle), mean (hNaV1.2; -4.47713 Log M): 0.78 | hNav1.2 current (352)/(Vehicle), mean (hNaV1.2; -4.95425 Log M): 0.6 | hNav1.2 current (352)/(Vehicle), mean (hNaV1.2; -5 Log M): 0.66 | hNav1.2 current (352)/(Vehicle), mean (hNaV1.2; -5.43133 Log M): 0.42 | hNav1.2 current (352)/(Vehicle), mean (hNaV1.2; -5.47716 Log M): 0.44 | hNav1.2 current (352)/(Vehicle), mean (hNaV1.2; -5.90833 Log M): 0.21 | hNav1.2 current (352)/(Vehicle), mean (hNaV1.2; -5.95429 Log M): 0.14 | hNav1.2 current (352)/(Vehicle), mean (hNaV1.2; -6.3851 Log M): 0.11 | hNav1.2 current (352)/(Vehicle), mean (hNaV1.2; -6.86328 Log M): 0.04 | hNav1.2 current (352)/(Vehicle), mean (hNaV1.2; -6.91009 Log M): 0.03 | hNav1.2 current (352)/(Vehicle), mean (hNaV1.2; -7.33724 Log M): 0.01 | hNav1.2 current (352)/(Vehicle), mean (hNaV1.2; -7.38722 Log M): 0 | hNav1.2 current (352)/(Vehicle), mean (hNaV1.2; -7.85387 Log M): 0.01 | hNav1.2 current (352)/(Vehicle), mean (hNaV1.2; -8.30103 Log M): 0.01 | IC50 (hNaV1.2; Vh -45 mV, HEK-293): 6.9 µM | inhibition at 30 µM (hNaV1.3; 30 µM, NaV1.3, read-out: inhibition at the highest concentration tested): < 50% | hNaV1.3 current (352)/(Vehicle), mean (hNaV1.3; -4.52288 Log M): 0.17 | hNaV1.3 current (352)/(Vehicle), mean (hNaV1.3; -5 Log M): 0.03 | hNaV1.3 current (352)/(Vehicle), mean (hNaV1.3; -5.47716 Log M): 0.01 | hNaV1.3 current (352)/(Vehicle), mean (hNaV1.3; -5.95429 Log M): -0.01 | hNaV1.3 current (352)/(Vehicle), mean (hNaV1.3; -6.91009 Log M): 0.01 | hNaV1.3 current (352)/(Vehicle), mean (hNaV1.3; -7.38722 Log M): 0.02 | hNaV1.3 current (352)/(Vehicle), mean (hNaV1.3; -7.85387 Log M): -0.01 | IC50 (hNaV1.3; Vh -45 mV, HEK-293): > 30 µM | Fraction of hNav1.6 current blocked, mean (hNaV1.6; 0.0046 µM): -0.01128 | Fraction of hNav1.6 current blocked, mean (hNaV1.6; 0.0137 µM): 0.1547 | Fraction of hNav1.6 current blocked, mean (hNaV1.6; 0.0412 µM): 0.4966 | Fraction of hNav1.6 current blocked, mean (hNaV1.6; 0.123 µM): 0.6688 | Fraction of hNav1.6 current blocked, mean (hNaV1.6; 0.37 µM): 0.8319 | Fraction of hNav1.6 current blocked, mean (hNaV1.6; 1.11 µM): 0.9499 | Fraction of hNav1.6 current blocked, mean (hNaV1.6; 3.33 µM): 0.9695 | Fraction of hNav1.6 current blocked, mean (hNaV1.6; 10 µM): 0.9977 | IC50 (hNaV1.6 N984K): 0.032 µM | h1.6-N984K 145756, Mean (hNaV1.6 N984K; -5 LogM): 0.94 | h1.6-N984K 145756, Mean (hNaV1.6 N984K; -5.47716 LogM): 0.92 | h1.6-N984K 145756, Mean (hNaV1.6 N984K; -5.95429 LogM): 0.89 | h1.6-N984K 145756, Mean (hNaV1.6 N984K; -6.4318 LogM): 0.81 | h1.6-N984K 145756, Mean (hNaV1.6 N984K; -6.91009 LogM): 0.66 | h1.6-N984K 145756, Mean (hNaV1.6 N984K; -7.38722 LogM): 0.56 | h1.6-N984K 145756, Mean (hNaV1.6 N984K; -7.85387 LogM): 0.33 | h1.6-N984K 145756, Mean (hNaV1.6 N984K; -8.33 LogM): 0.09
